In ChEMBL document CHEMBL3813683, “Design, synthesis and anti-cancer activity evaluation of podophyllotoxin-norcantharidin hybrid drugs” (Bioorg Med Chem Lett, 2016):
pIC50: −log10 of the molar value.

Assays:
[1] = Cytotoxicity against HEK293T cells after 36 hrs by MTT assay; assay type: cell-based; conditions: Homo sapiens, HEK-293T
MCF7 [2] = experiment: Cytotoxicity against human MCF7 cells after 36 hrs by MTT assay; assay type: functional, cell-based; conditions: MCF7, 36 h
HeLa = experiment: Cytotoxicity against human HeLa cells after 36 hrs by MTT assay; assay type: functional, cell-based
A549 = experiment: Cytotoxicity against human A549 cells after 36 hrs by MTT assay; assay type: functional, cell-based; conditions: A549, 36 h
MCF7 [3] = experiment: Cell cycle arrest in human MCF7 cells assessed as accumulation at G0/G1 phase at 2 uM after 24 hrs by propidium iodide staining-based flow cytometry (reference value: 64.68 to 80.32%); assay type: functional
MCF7 [4] = experiment: Induction of apoptosis in human MCF7 cells assessed as viable cells at 4 uM after 24 hrs by Annexin V-FITC/propidium iodide staining-based flow cytometry (reference value: 80 to 91.6%); assay type: functional; conditions: MCF7, 24 h, read-out: Activity
MCF7 [5] = experiment: Induction of apoptosis in human MCF7 cells assessed as early apoptotic cells at 1 uM after 24 hrs by Annexin V-FITC/propidium iodide staining-based flow cytometry (reference value: 2.45 to 6.92%); assay type: functional
MCF7 [6] = experiment: Cell cycle arrest in human MCF7 cells assessed as accumulation at S phase at 8 uM after 24 hrs by propidium iodide staining-based flow cytometry (reference value: 15.95 to 25.74%); assay type: functional
MCF7 [7] = experiment: Induction of apoptosis in human MCF7 cells assessed as late apoptotic cells at 1 uM after 24 hrs by Annexin V-FITC/propidium iodide staining-based flow cytometry (reference value: 5.92 to 9.33%); assay type: functional
MCF7 [8] = experiment: Cell cycle arrest in human MCF7 cells assessed as accumulation at G2/M phase at 4 uM after 24 hrs by propidium iodide staining-based flow cytometry (reference value: 3.73 to 10.75%); assay type: functional
MCF7 [9] = experiment: Induction of apoptosis in human MCF7 cells assessed as viable cells at 8 uM after 24 hrs by Annexin V-FITC/propidium iodide staining-based flow cytometry (reference value: 80 to 91.6%); assay type: functional; conditions: MCF7, 24 h, read-out: Activity
MCF7 [10] = experiment: Cell cycle arrest in human MCF7 cells assessed as accumulation at G0/G1 phase at 8 uM after 24 hrs by propidium iodide staining-based flow cytometry (reference value: 64.68 to 80.32%); assay type: functional
MCF7 [11] = experiment: Induction of apoptosis in human MCF7 cells assessed as viable cells at 2 uM after 24 hrs by Annexin V-FITC/propidium iodide staining-based flow cytometry (reference value: 80 to 91.6%); assay type: functional; conditions: MCF7, 24 h, read-out: Activity
MCF7 [12] = experiment: Induction of apoptosis in human MCF7 cells assessed as late apoptotic cells at 8 uM after 24 hrs by Annexin V-FITC/propidium iodide staining-based flow cytometry (reference value: 5.92 to 9.33%); assay type: functional
MCF7 [13] = experiment: Induction of apoptosis in human MCF7 cells assessed as necrotic cells at 4 uM after 24 hrs by Annexin V-FITC/propidium iodide staining-based flow cytometry (reference value: 0.021 to 3.8%); assay type: functional
MCF7 [14] = experiment: Induction of apoptosis in human MCF7 cells assessed as late apoptotic cells at 4 uM after 24 hrs by Annexin V-FITC/propidium iodide staining-based flow cytometry (reference value: 5.92 to 9.33%); assay type: functional
MCF7 [15] = experiment: Induction of apoptosis in human MCF7 cells assessed as necrotic cells at 1 uM after 24 hrs by Annexin V-FITC/propidium iodide staining-based flow cytometry (reference value: 0.021 to 3.8%); assay type: functional
MCF7 [16] = experiment: Induction of apoptosis in human MCF7 cells assessed as early apoptotic cells at 4 uM after 24 hrs by Annexin V-FITC/propidium iodide staining-based flow cytometry (reference value: 2.45 to 6.92%); assay type: functional
MCF7 [17] = experiment: Induction of apoptosis in human MCF7 cells assessed as early apoptotic cells at 8 uM after 24 hrs by Annexin V-FITC/propidium iodide staining-based flow cytometry (reference value: 2.45 to 6.92%); assay type: functional
MCF7 [18] = experiment: Induction of apoptosis in human MCF7 cells assessed as necrotic cells at 8 uM after 24 hrs by Annexin V-FITC/propidium iodide staining-based flow cytometry (reference value: 0.021 to 3.8%); assay type: functional
MCF7 [19] = experiment: Cell cycle arrest in human MCF7 cells assessed as accumulation at S phase at 4 uM after 24 hrs by propidium iodide staining-based flow cytometry (reference value: 15.95 to 25.74%); assay type: functional
MCF7 [20] = experiment: Cell cycle arrest in human MCF7 cells assessed as accumulation at S phase at 2 uM after 24 hrs by propidium iodide staining-based flow cytometry (reference value: 15.95 to 25.74%); assay type: functional
MCF7 [21] = experiment: Induction of apoptosis in human MCF7 cells assessed as viable cells at 1 uM after 24 hrs by Annexin V-FITC/propidium iodide staining-based flow cytometry (reference value: 80 to 91.6%); assay type: functional; conditions: MCF7, 24 h, read-out: Activity
MCF7 [22] = experiment: Cell cycle arrest in human MCF7 cells assessed as accumulation at G2/M phase at 8 uM after 24 hrs by propidium iodide staining-based flow cytometry (reference value: 3.73 to 10.75%); assay type: functional
MCF7 [23] = experiment: Induction of apoptosis in human MCF7 cells assessed as necrotic cells at 2 uM after 24 hrs by Annexin V-FITC/propidium iodide staining-based flow cytometry (reference value: 0.021 to 3.8%); assay type: functional
MCF7 [24] = experiment: Induction of apoptosis in human MCF7 cells assessed as early apoptotic cells at 2 uM after 24 hrs by Annexin V-FITC/propidium iodide staining-based flow cytometry (reference value: 2.45 to 6.92%); assay type: functional
MCF7 [25] = experiment: Induction of apoptosis in human MCF7 cells assessed as late apoptotic cells at 2 uM after 24 hrs by Annexin V-FITC/propidium iodide staining-based flow cytometry (reference value: 5.92 to 9.33%); assay type: functional
MCF7 [26] = experiment: Cell cycle arrest in human MCF7 cells assessed as accumulation at G2/M phase at 2 uM after 24 hrs by propidium iodide staining-based flow cytometry (reference value: 3.73 to 10.75%); assay type: functional
MCF7 [27] = experiment: Cell cycle arrest in human MCF7 cells assessed as accumulation at G0/G1 phase at 4 uM after 24 hrs by propidium iodide staining-based flow cytometry (reference value: 64.68 to 80.32%); assay type: functional

`COc1cc(C2c3cc4c(cc3[C@H](OC(=O)[C@H](Cc3ccccc3)N3C(=O)C5C6CCC(O6)C5C3=O)[C@H]3COC(=O)[C@H]23)OCO4)cc(OC)c1OC` (stereo not given in full) gave a pIC50 [1] of 4.15, a pIC50 (MCF7 [2]) of 5.19 and a pIC50 (HeLa) of 5.06. It also gave a pIC50 (A549) of 5.43.

With `COc1cc(C2c3cc4c(cc3[C@H](OC(=O)C(Cc3ccccc3)N3C(=O)C5CCCCC5C3=O)[C@H]3COC(=O)[C@H]23)OCO4)cc(OC)c1OC` (stereo not given in full) the pIC50 [1] was 4.21, the pIC50 (MCF7 [2]) was 5.93 and the pIC50 (HeLa) was 5.65. It also gave a pIC50 (A549) of 5.76.

Work on `COc1cc(C2c3cc4c(cc3[C@H](OC(=O)[C@H](C)N3C(=O)C5CCCCC5C3=O)[C@H]3COC(=O)[C@H]23)OCO4)cc(OC)c1OC` (stereo not given in full) yielded a pIC50 [1] of 4.13, a pIC50 (MCF7 [2]) of 5.34 and a pIC50 (HeLa) of 5.24. The pIC50 (A549) was 5.61.

`COc1cc(C2c3cc4c(cc3[C@H](OC(=O)C(Cc3ccccc3)N3C(=O)c5ccccc5C3=O)[C@H]3COC(=O)[C@H]23)OCO4)cc(OC)c1OC` (stereo not given in full) showed a pIC50 [1] of 4.18, a pIC50 (MCF7 [2]) of 5.19 and a pIC50 (HeLa) of 5.15. The pIC50 (A549) was 5.38.

`O=C1OC(=O)C2C3CCC(O3)C12` (stereo not given) showed an Activity (MCF7 [3]) of 41.61%, a viability at 4 µM (MCF7 [4]) of 58.1% and an Activity (MCF7 [5]) of 5.68%. It also gave an Activity (MCF7 [6]) of 45.68%, an Activity (MCF7 [7]) of 14.5% and an Activity (MCF7 [8]) of 16.7%. It also gave a pIC50 [1] of 5.01, a pIC50 (MCF7 [2]) of 4.92 and a viability at 8 µM (MCF7 [9]) of 33.5%. The Activity (MCF7 [10]) was 31.77%, the viability at 2 µM (MCF7 [11]) was 69% and the Activity (MCF7 [12]) was 41.3%. For the same compound, the Activity (MCF7 [13]) was 11.6%, the Activity (MCF7 [14]) was 22% and the Activity (MCF7 [15]) was 5.89%. The Activity (MCF7 [16]) was 8.3%, the Activity (MCF7 [17]) was 11% and the Activity (MCF7 [18]) was 14.2%. The Activity (MCF7 [19]) was 47.21%, the Activity (MCF7 [20]) was 42.95% and the viability at 1 µM (MCF7 [21]) was 74%. It also gave an Activity (MCF7 [22]) of 22.55%, a pIC50 (HeLa) of 5.04 and an Activity (MCF7 [23]) of 4.21%. The Activity (MCF7 [24]) was 6.04%, the pIC50 (A549) was 4.80 and the Activity (MCF7 [25]) was 20.8%. For the same compound, the Activity (MCF7 [26]) was 15.64% and the Activity (MCF7 [27]) was 36.09%.

Compound `COc1cc(C2c3cc4c(cc3[C@H](OC(=O)C(C)N3C(=O)C5C6CCC(O6)C5C3=O)[C@H]3COC(=O)[C@H]23)OCO4)cc(OC)c1OC` (stereo not given in full) has a pIC50 [1] of 4.27, a pIC50 (MCF7 [2]) of 5.76 and a pIC50 (HeLa) of 5.73. It also gave a pIC50 (A549) of 5.72.

Work on `COc1cc(C2c3cc4c(cc3[C@H](OC(=O)C(C)N3C(=O)C5CCCCC5C3=O)[C@H]3COC(=O)[C@H]23)OCO4)cc(OC)c1OC` (stereo not given in full) yielded a pIC50 [1] of 4.04, a pIC50 (MCF7 [2]) of 5.73 and a pIC50 (HeLa) of 5.70. For the same compound, the pIC50 (A549) was 5.63.

With `COc1cc(C2c3cc4c(cc3[C@H](OC(=O)[C@H](C)N3C(=O)C5C6CCC(O6)C5C3=O)[C@H]3COC(=O)[C@H]23)OCO4)cc(OC)c1OC` (stereo not given in full) the pIC50 [1] was 4.19, the pIC50 (MCF7 [2]) was 5.91 and the pIC50 (HeLa) was 5.52. The pIC50 (A549) was 5.93.

Compound `COc1cc(C2c3cc4c(cc3[C@H](OC(=O)[C@@H](Cc3ccccc3)N3C(=O)C5C6CCC(O6)C5C3=O)[C@H]3COC(=O)[C@H]23)OCO4)cc(OC)c1OC` (stereo not given in full) has a pIC50 [1] of 4.17, a pIC50 (MCF7 [2]) of 5.56 and a pIC50 (HeLa) of 5.51. For the same compound, the pIC50 (A549) was 5.36.

With `COc1cc(C2c3cc4c(cc3[C@H](OC(=O)[C@@H](Cc3ccccc3)N3C(=O)C5CCCCC5C3=O)[C@H]3COC(=O)[C@H]23)OCO4)cc(OC)c1OC` (stereo not given in full) the pIC50 [1] was 4.20, the pIC50 (MCF7 [2]) was 5.43 and the pIC50 (HeLa) was 5.41. It also gave a pIC50 (A549) of 5.41.
